As usually defined, the Ki is the equilibrium dissociation constant of an inhibitor or competing ligand from its target. Read a high Ki as weaker binding.

The assay has as its target T1, Adenosine receptor A1 (Bos taurus, UniProt P28190).
T1 sequence (P28190 whole entry): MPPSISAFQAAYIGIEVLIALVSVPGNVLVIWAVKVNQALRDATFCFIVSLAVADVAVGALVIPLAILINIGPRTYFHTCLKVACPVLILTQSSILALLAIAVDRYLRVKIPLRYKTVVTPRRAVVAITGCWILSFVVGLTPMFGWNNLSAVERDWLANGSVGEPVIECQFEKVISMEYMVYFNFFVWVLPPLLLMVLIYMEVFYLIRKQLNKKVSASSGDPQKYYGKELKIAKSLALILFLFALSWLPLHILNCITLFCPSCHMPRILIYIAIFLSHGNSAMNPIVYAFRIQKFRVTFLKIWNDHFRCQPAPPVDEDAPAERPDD
In words: Binding affinity to bovine adenosine A1 receptor.
In turn, `COc1ccc(C(=O)Nc2nc(-c3ccccc3)nc3c2nnn3Cc2ccccc2)cc1` gave an inhibitory constant (Ki) of 3.24 nM. Turning to `OC1CCC(Nc2nc(-c3ccccc3)nc3c2nnn3Cc2ccccc2Cl)CC1` (stereo not drawn), the Ki was 3.1 nM. `COc1ccc(C(=O)Nc2nc(-c3ccccc3)nc3c2nnn3Cc2ccccc2Cl)cc1` showed a Ki of 20 nM. In turn, `OC1CCC(Nc2nc(-c3ccccc3)nc3c2nnn3Cc2ccccc2F)CC1` (stereo not drawn) had a Ki of 1.85 nM. The value for `O[C@H]1CCCC[C@@H]1Nc1nc(-c2ccccc2)nc2c1nnn2Cc1ccccc1` was 10.3 nM; that for `COc1ccc(C(=O)Nc2nc(-c3ccccc3)nc3c2nnn3Cc2ccccc2F)cc1` was 21.9 nM; that for `OC1CCC(Nc2nc(-c3ccccc3)nc3c2nnn3Cc2ccccc2)CC1` (stereo not drawn) was 2.7 nM. The result for `c1ccc(Cn2nnc3c(NC4CCCCC4)nc(-c4ccccc4)nc32)cc1` reads 1.6 nM.

Source of the values: ChEMBL document CHEMBL1157209, “QSAR study on a novel series of 8-azaadenine analogues proposed as A1 adenosine receptor antagonists” (Eur J Med Chem, 2008).
